Source: EP1094724B1, “USE OF A PHENOL OXIDISING ENZYME IN THE TREATMENT OF TOBACCO” (priority 1998, dated 2000)

Legend:
[1] = target: T1, laccase derived from Trametes villosa, TvL (Trametes villosa, UniProt Q99044); test: Effect of laccase on tobacco constituents, UV/Vis spectra before and after treatment (Example 1); format: biochemical; details: 9 mM Na-acetate buffer pH 5.0; 4.8% Ethanol; 0.025 mg/ml of tobacco constituent; 0.016 mg/ml laccase; spectra 190-700 nm every 20 seconds for 5 minutes
T1 construct: purchased Novo Nordisk A/S
T1 sequence (Q99044 22-520): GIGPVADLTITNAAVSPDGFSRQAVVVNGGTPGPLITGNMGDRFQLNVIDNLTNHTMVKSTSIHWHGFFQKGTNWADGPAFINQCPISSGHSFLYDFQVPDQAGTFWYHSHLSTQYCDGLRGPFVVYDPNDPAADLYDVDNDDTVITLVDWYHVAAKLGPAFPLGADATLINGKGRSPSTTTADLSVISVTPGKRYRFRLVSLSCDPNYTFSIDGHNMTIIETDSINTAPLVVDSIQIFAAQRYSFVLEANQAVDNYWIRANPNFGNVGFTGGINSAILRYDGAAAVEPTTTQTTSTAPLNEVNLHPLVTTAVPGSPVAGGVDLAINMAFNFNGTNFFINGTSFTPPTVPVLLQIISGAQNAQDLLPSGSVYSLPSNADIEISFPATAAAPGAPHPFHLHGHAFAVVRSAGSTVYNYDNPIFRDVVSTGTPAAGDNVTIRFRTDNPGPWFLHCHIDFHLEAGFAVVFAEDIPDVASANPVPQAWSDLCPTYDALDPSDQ
Description: Tobacco constituents: Nicotine, Chlorogenic acid, Rutin and Scopoletin. Enzyme: Purified laccase derived from Trametes villosa, TvL. Apparatus: HP8452 UV/Vis diode array spectrophotometer, 1 cm quarts cuvette. Buffer: Sodium acetate (Merck)
10 mM acetate buffer was prepared from sodium acetate adjusted to pH 5.0 with sulphuric acid. Stock solution of 0.50 mg/ml in 96% ethanol was prepared of nicotine, chlorogenic acid, rutin, and scopoletin. A stock solution of 0.31 mg enzyme protein/ml of laccase in de-mineralised water was prepared. The HP diode array spectrophotometer was operated as per the manufacturer's instructions. A 1 cm quartz cuvette was used. As a blank was used 950µl buffer mixed with 50µl 96% ethanol. In a 1 cm quart cuvette was mixed 900µl 10 mM acetate buffer and 50µl of the stock solution of the compound in question. A spectrum of the "native" compound was recorded in the range 190-700 nm. 50µl of TvL stock solution was added and carefully mixed, and spectra in the range 190-700 nm were recorded every 20 seconds for 5 minutes.

[2] = target: T2, Trametes villosa laccase (TvL) (Trametes villosa, UniProt Q99044); test: Laccase TvL treatment of tobacco extract, HPLC analysis of phenolic compounds (peak area); format: biochemical; details: for % Remaining (peak area) after various treatment times: intensive, submerse aeration; for % Remaining (peak area) after 75 minutes / % Remaining (peak area) after 240 minutes: 1.6 µg/ml TvL, ambient temperature (approximately 20°C), surface aeration
T2 construct: purchased Novo Nordisk A/S
T2 sequence (Q99044 22-520): T1 sequence (Q99044 22-520)
Description: The content of phenolic compounds is analysed by HPLC according to the procedure described below: • Liquid chromatographic system: E.g. Shimadzu SCL-6B System Controller, and two LC-6A Liquid Chromatograph (pumps) or Waters model 600 E • Injector: Shimadzu SIL 6B Autoinjector or Waters 715 Ultra Wisp. UV detector: Shimadzu SPD-6A Photodiode Array UV-VIS detector or Waters Model 481 • Software: CLASS LC10 / CLASS-MXA or Maxima 820 • Column: Supelcosil™ LC-18 25 cm x 4.6 mm (Supelco, #5-8298) or µ Bondapack C198 stainless steel column, 30 cm x 4 mm i.d., 10 µm particle size. • Guard column: none or Guard-Pak from Waters packed with the same material. • Temperature: Ambient • Mobile phase flow: 1.3 ml/min • Injection volume: 20µl • Wavelength: 350 nm • Eluent: Binary gradient (linear) mixture of A: KH2PO4 (28.4 g in 2000 ml de-mineralised water) and B: methanol (please see table 1 and figure 1). The eluent is filtered through a 0.45 µm filter and degassed before use.
Prior to HPLC analysis, the samples were filtered through a 0.45 µm filter or smaller, e.g. a sterile Sartorius Minisart 0.45 µm filter (#16555) or a Millipore Millex-GS 0.22 µm (#SBGS 0 25 SB) to remove the haze/precipitate normally formed during enzyme treatment. Normally, no dilution of the extract/sample was made before HPLC analysis.
For qualitative and semi-quantitative measurements, each of the standards was dissolved in 96% ethanol, and then mixed in a ratio and at a concentration which was within the range in the tobacco extract. For semi-quantification of the phenolic compounds in the tobacco extract, and as a measure of development in concentration of the various compounds contained in the extract, decrease in peak area relative to the peak area before addition of enzyme was used. As a measure of overall efficiency of the process, degree of reduction in total peak area of all peaks (not only the major ones) in the HPLC chromatogram with retention time Rt>3 min was used (named: "All peaks").
Unless otherwise indicated, the tobacco was extracted at a laboratory scale with water according to the following procedure: 1000 ml demineralised water is heated to 45°C. 30 g tobacco (approx. 25 g d.m.) is added and the mixture stirred by a magnetic bar and occasionally with a stick. After 15 minutes the tobacco residue is separated from the tobacco extract by vacuum filtration (Whatman glass micro fibre GF/F 11 cm). The filtered extract is then vacuum filtered at least once more or until it is completely clear. Yield was around 900 ml tobacco extract. […] No buffer was thus included in any of the trials. D.m. content of the extract was approximately 2.1%.
Tobacco extract (typically 50-100 ml) was poured into a glass beaker and a magnetic bar was added. No pH adjustments were made, and no buffer was added. The tobacco extract was heated to and controlled at 55°C during the entire enzyme treatment by means of a heating plate and a thermostat. Intensive submerse aeration was applied by blowing atmospheric air into the extract by means of a metal sinter (metal suction filter normally used for HPLC). The enzyme in question (TvL or PpL) was added to the desired concentration. Shortly after addition of laccase, the colour of the tobacco extract turned dark brown to black, and with time the liquor became turbid and a precipitate formed. The liquor was sampled with intervals for HPLC analysis.
Enzyme treatment: Surface aeration was used. TvL enzyme was added to the tobacco extract to a concentration of approximately 1.6 µg/ml. […] HPLC chromatograms of the tobacco extract before, during, and after enzyme treatment as well as chromatograms of the mixture of HPLC standards are shown in figure 6, 7, ,8, and 9.
Enzyme treatment: pH of the extract was adjusted with H2SO4 or NaOH to pH 4, pH 5, pH 6, or pH 7. The extract was kept at ambient temperature (approximately 20°C) during the entire enzyme treatment. Surface aeration was used. […]

## CN1CCCC1c1cccnc1 (stereo not shown) [Nicotine]
[1]
  spectral changes (peak position and peak relative height): No spectral changes

## C[C@@H]1O[C@@H](OC[C@H]2O[C@@H](Oc3c(-c4ccc(O)c(O)c4)oc4cc(O)cc(O)c4c3=O)[C@H](O)[C@@H](O)[C@@H]2O)[C@H](O)[C@H](O)[C@H]1O [R, rutin]
[2]; 40 Min, approximately 1.6 µg/ml TvL at 55°C and pH 5.4
  % Remaining (peak area) after various treatment times: 20%
[2]; 40 Min, approximately 7.8µg/ml TvL at 55°C and pH 5.4
  % Remaining (peak area) after various treatment times: 0%
[2]; 80 Min, approximately 1.6 µg/ml TvL at 55°C and pH 5.4
  % Remaining (peak area) after various treatment times: 0%
[2]; 120 Min, approximately 1.6 µg/ml TvL at 55°C and pH 5.4
  % Remaining (peak area) after various treatment times: 0%
[2]; pH 4
  % Remaining (peak area) after 75 minutes: 44%
  % Remaining (peak area) after 240 minutes: 0%
[2]; pH 5
  % Remaining (peak area) after 75 minutes: 29%
  % Remaining (peak area) after 240 minutes: 0%
[2]; pH 6
  % Remaining (peak area) after 75 minutes: 14%
  % Remaining (peak area) after 240 minutes: 0%
[2]; pH 7
  % Remaining (peak area) after 75 minutes: 87%
  % Remaining (peak area) after 240 minutes: 63%
